# Measurements as given in US20240307525A1 (priority 2020, published 2024).
# How the values were obtained:
# Experiment in all cases: microbe, parasite or virus in culture
# Assay type in all cases: cell-based, SARS-COV-2
# rSARS-COV-2-Venus = conditions: Severe acute respiratory syndrome coronavirus 2, Vero C1008
# rSARS-COV-2/WT = conditions: Severe acute respiratory syndrome coronavirus 2, Vero C1008
# rSARS-COV-2-mCherry = conditions: Severe acute respiratory syndrome coronavirus 2, Vero C1008
# rSARS-COV-2-Nluc = conditions: Severe acute respiratory syndrome coronavirus 2, Vero C1008, 48 h
smiles,measurement,setting,value
CCC(CC)COC(=O)[C@H](C)N[P@](=O)(OC[C@H]1O[C@@](C#N)(c2ccc3c(N)ncnn23)[C@H](O)[C@@H]1O)Oc1ccccc1 [Remdesivir],EC50,rSARS-COV-2-Venus,1070 nM
same,EC50,rSARS-COV-2/WT,1510 nM
same,EC50,rSARS-COV-2-mCherry,1780 nM
same,EC50,rSARS-COV-2-Nluc,1790 nM
